In publication PMC3236199, “Development of Derivatives of 3, 3′-Diindolylmethane as Potent Leishmania donovani Bi-Subunit Topoisomerase IB Poisons” (PLoS ONE, 2011):

What follows are compounds tested on L. donovani AG83 amastigotes in Balb/c mouse peritoneal macrophages (assay: In vitro macrophage infection, clearance of intracellular amastigotes). Conditions: 50 µM, 24 h, infected mouse macrophages.
Assay type: cell-based, Leishmania donovani
Description: Balb/c mice, originally obtained from Jackson Laboratories, Bar Harbor, ME and reared in the institute animal facilities, were used for experimental purposes with prior approval of the animal ethics committee. Macrophages were isolated from mice 36 to 48 hr post injection (intraperitoneal) with 2% (w/v) hydrolyzed starch by peritoneal lavage with ice-cold phosphate-buffered saline. Cells were washed and cultured for 18–24 hr (for adherence) in RPMI 1640 (supplemented with 100 IU/ml of penicillin and […] of streptomycin) containing 10% (v/v) heat-inactivated FBS (RPMI-FBS) at 37°C with 5% CO2 in air on sterile cover glass (22 mm×22 mm) placed in disposable plates 35 mm in diameter (Tarsons India Ltd.). The culture medium was washed off and fresh RPMI-FBS was added. About 5×10^5 macrophages were maintained for proper distribution on cover glass. During the course of this study, macrophages were infected with promastigotes at a macrophage-to-parasite ratio of 1∶10 in RPMI-FBS for 6 hours to ensure entry of parasite. Following incubation, unphagocytosed parasites were removed by washing with medium, and cells were resuspended in RPMI-FBS at 37°C, 5% CO2 and then incubated for 6 hrs. Cultures were transferred to a CO2 incubator at 37°C and incubated for another 10–12 hr. Respective inhibitors were added at different concentrations (ranging from 5 µM to 50 µM) to infected macrophages and left for another 24 hr period. Cells were then fixed in methanol and stained with 2% Giemsa. Percentages of infected cells and total number of intracellular parasites were determined by manual counting in at least 200 cells using light microscope.
Primary macrophage cells were obtained from Balb/c mice peritoneal extrudates. After adherence and inactivation, these macrophage cells were infected with early passaged L. donovani AG83 promastigotes were infected to macrophages. After subsequent washing they were incubated with different concentrations (5, 10, 20 and 50 µM) of each of these inhibitors for 24 h (Fig. 3A). Macrophages were fixed and intracellular amastigotes were counted by Giemsa staining. […]
Figure 3 Effectiveness of clearance of internalized L. donovani (AG83) from in vitro infected mouse M [drawing 3] . […] Cells were fixed, stained with Giemsa and counted under bright field microscope. […] Experiments were carried out for three times and representative results are the mean ± S.D. (B) Growth of DIM resistant L. donovani axenic amastigotes were monitored in presence of increasing concentrations (2, 5, 10, 20 and 50 µM) of DIM, DPDIM, DMDIM and DMODIM for 12 h. […] Growth of the parasites treated with the compounds was expressed as percentage of the viable promastigotes compared with that of control. […]

| SMILES | efficiency of amastigote killing (clearance from macrophages) |
| --- | --- |
| Cc1[nH]c2ccccc2c1Cc1c(C)[nH]c2ccccc12 [DMDIM, 2,2′-dimethyl 3,3′-diindolyl methane] | 92% |
| c1ccc(-c2[nH]c3ccccc3c2Cc2c(-c3ccccc3)[nH]c3ccccc23)cc1 [DPDIM, 2,2′-diphenyl 3,3′-diindolyl methane] | 96% |
| c1ccc2c(Cc3c[nH]c4ccccc34)c[nH]c2c1 [DIM, 3, 3′-diindolyl methane, reference compound] | 91% |
| COc1ccc2[nH]cc(Cc3c[nH]c4ccc(OC)cc34)c2c1 [DMODIM, 5,5′-dimethoxy 3,3′-diindolyl methane] | about 85% |

What follows are compounds tested on F270L mutant topoisomerase I (assay: Equilibrium (duplex oligonucleotide) cleavage assay, F270L mutant). Conditions: 20 µM, with respect to cleavable complex formed without drug with wild type enzyme.
Assay type: biochemical, Leishmania donovani
Description: Cells were lysed and proteins were purified through Ni^+2-NTA agarose column (Qiagen) followed by phosphocellulose column chromatography (P11 cellulose, Whatman) as described. Finally the purified proteins LdTOP1L, LdTOP1L^F270L and LdTOP1S were stored at −70°C. Purified LdTOP1L and LdTOP1L^F270L were mixed with purified LdTOP1S separately and at a molar ratio of 1∶1 at a total protein concentration of 0.5 mg/ml in reconstitution buffer (50 mM potassium phosphate, pH 7.5, 0.5 mM DTT, 1 mM EDTA, 0.1 mM PMSF, 10% glycerol). The mixtures were dialyzed over night at 4°C and the dialyzed fractions were used for the plasmid relaxation activity.
The 25-mer oligonucleotide 1 (5′-GAAAAAAGACTT↓AGAAAAATTTTTA-3′) was 5′-end labeled with [γ^32P] ATP and annealed with oligonucleotide 2 (5′-[…]-3′) to make a duplex oligonucleotide containing a topoisomerase I binding motif as described. Cleavage assay was carried out using 20-fold molar excess of enzymes over duplex 25-mer DNA (enzymes, 0.2 µM; DNA, 10 nM). The reactions were carried out in standard assay condition in the absence or presence of drugs at 37°C for 30 min. All the reactions were stopped by addition of SDS to a final concentration of 2% (w/v), digested with 5 µl of 1 mg/ml trypsin and analyzed by 12% denaturing polyacrylamide gel followed by autoradiography. The amount of strand cleavage in the presence of drugs was determined by densitometry of the film as described.
The effect of DIM and its derivatives on L. donovani topoisomerase I was examined by plasmid DNA cleavage assay as described. The topoisomerase reaction has three general mechanistic steps: (i) binding of enzyme to the substrate DNA, (ii) single strand breakage and subsequent strand rotation through the break leading to change in linking number, and (iii) strand religation. The second step of reaction is the introduction of a single-stranded nick in the phosphodiester bond of the DNA, through which an intact strand is allowed to pass. […]

| SMILES | extent of cleavage |
| --- | --- |
| Cc1[nH]c2ccccc2c1Cc1c(C)[nH]c2ccccc12 [DMDIM, 2,2′-dimethyl 3,3′-diindolyl methane] | ~53% |
| c1ccc(-c2[nH]c3ccccc3c2Cc2c(-c3ccccc3)[nH]c3ccccc23)cc1 [DPDIM, 2,2′-diphenyl 3,3′-diindolyl methane] | 56% |
| COc1ccc2[nH]cc(Cc3c[nH]c4ccc(OC)cc34)c2c1 [DMODIM, 5,5′-dimethoxy 3,3′-diindolyl methane] | ~50% |
